For experiment [1], the target named is T1, α2A-AR (Homo sapiens, UniProt P08913).
T1 sequence (P08913 1-465): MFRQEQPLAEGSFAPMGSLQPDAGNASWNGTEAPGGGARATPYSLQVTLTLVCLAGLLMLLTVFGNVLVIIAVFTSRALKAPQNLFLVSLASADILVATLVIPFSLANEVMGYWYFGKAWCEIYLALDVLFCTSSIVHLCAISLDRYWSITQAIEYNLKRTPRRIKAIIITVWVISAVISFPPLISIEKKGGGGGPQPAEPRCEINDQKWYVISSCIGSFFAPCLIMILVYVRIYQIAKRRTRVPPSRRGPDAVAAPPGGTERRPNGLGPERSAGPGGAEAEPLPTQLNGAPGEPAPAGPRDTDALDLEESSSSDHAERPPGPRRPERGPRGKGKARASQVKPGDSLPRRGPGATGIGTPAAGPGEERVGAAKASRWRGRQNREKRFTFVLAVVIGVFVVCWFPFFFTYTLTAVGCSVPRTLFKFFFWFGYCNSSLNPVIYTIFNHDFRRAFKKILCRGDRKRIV
Put plainly: Competitive inhibition of [3H] Rauwolscine binding, CHO-K1 membranes.

Experiment [2] deals with C57BL/6 mice. In words: Spontaneous locomotor activity of mice. Type of experiment: in vivo, mouse. The settings on record: for inhibition of mice locomotor activity compared to solvent: 10 nmol/mice, i.c.v. An excerpt:
Animals had free access to water and food. […] Animals were assigned to groups randomly before testing.

The target of experiment [3] is T2, α2B-AR (Homo sapiens, UniProt P18089).
T2 sequence (P18089 1-450): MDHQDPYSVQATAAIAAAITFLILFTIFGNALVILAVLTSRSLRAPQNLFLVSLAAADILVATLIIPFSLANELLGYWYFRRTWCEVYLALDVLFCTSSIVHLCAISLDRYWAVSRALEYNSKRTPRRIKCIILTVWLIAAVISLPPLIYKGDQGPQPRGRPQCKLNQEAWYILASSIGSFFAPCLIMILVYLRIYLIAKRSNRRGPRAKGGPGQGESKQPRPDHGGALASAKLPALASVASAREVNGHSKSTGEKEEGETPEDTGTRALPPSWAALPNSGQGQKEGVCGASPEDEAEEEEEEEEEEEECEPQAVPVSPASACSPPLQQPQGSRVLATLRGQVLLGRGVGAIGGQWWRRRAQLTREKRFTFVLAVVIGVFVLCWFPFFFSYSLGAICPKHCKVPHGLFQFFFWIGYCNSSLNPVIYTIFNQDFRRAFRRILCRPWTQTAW
In words: GloSensor cAMP assay in HEK293 cells transfected with α2B-AR. Type of experiment: cell-based. The arrangement: Flag; expressed in transfected cells; host or cells: HEK293. Particulars: for effect on cAMP accumulation (agonist activity) in α2B-AR cells: HEK293 α2B-AR, DMED 10^−10–10^−7M, P300–2342 10^−10–10^−5M; for effect of pretreatment on cAMP accumulation induced by DMED (antagonist activity): α2B-AR-HEK293 cells, 10 μM.

In experiment [4] the target is T1, α2A-AR. In words: GloSensor cAMP assay in HEK293 cells transfected with α2A-AR. Type of experiment: cell-based. The arrangement: Flag; expressed in transfected cells; host or cells: HEK293. Particulars: for increase of cAMP accumulation (Gαs coupling) / decrease of cAMP accumulation stimulated by forskolin (Gαi/o coupling): α2A-AR HEK293, P300–2342 10^−10–10^−5M; for increase of cAMP accumulation (Gαs coupling): DMED 10^−8–10^−5M; for decrease of cAMP accumulation stimulated by forskolin (Gαi/o coupling): FSK 10^−5M, DMED 10^−13–10^−9M; for decrease in cAMP accumulation after pertussis toxin pretreatment: PTX 500 ng/mL, 24 h. On the procedure: (§1) According to the GloSensor cAMP biosensor (Promega, Shanghai, China) manufacturer protocols, HEK293 cells were co-transfected with the pGloSensor-22F cAMP plasmid (Promega, E1171) and pCMV6 Entry-Flag-α2A-AR. After 24 h, the cells were seeded in white 96-well plates. The next day, the cell media were replaced by 90 μL of fresh DMEM with 2% v/v GloSensor cAMP reagent (Promega, E1290) and incubated for 60 min at 37 °C. Before drug stimulation, an initial measurement of the baseline signal was detected. […] PTX 500 ng/mL pretreatment for 24 h was used to assay the chemical effects on Gi coupling following α2A-AR activation. Two mutations, V114A and Y394A were introduced into the α2A-AR genes, respectively, using standard QuickChange PCR. […] In each experiment, the cAMP assay used pcDNA3.1 myc/hisB transfected cells as a negative control and cells stimulated with 10 μM of forskolin as a positive control. The signal was read using a Victor 2D Instrument (PerkinElmer) at 675 nm. The production of cAMP% was calculated (the signal value after chemicals addition–baseline signal value)/the baseline signal value *100 as described in our previous study.
On the technique in general: Changes in cAMP serve as a functional read-out for many G protein-coupled receptors.

Experiment [5] deals with T2, α2B-AR. In words: Competitive inhibition of [3H] Rauwolscine binding, CHO-K1 membranes.
Experiment [6] has as its system C57/B6 mice. The settings on record: 432 nmol/kg, i.p.
Description: C57BL/6 mice (20–22 g) were purchased from the SPF biotechnology co., LTD (Beijing, China). All the animals were housed in an alternating 12 h light/12 h dark cycle room, which was maintained in a climate-controlled environment (25 ± 1 °C). Animals had free access to water and food. All the experimental procedures were reviewed and approved by the ethics committee and institutional animal care and use committee of the Beijing Institute of Pharmacology and Toxicology, Beijing, China (IACUC of AMMS–06–2017–001). Animals were assigned to groups randomly before testing. Testing occurred within the same approximate time of day between experiments. The experimenter was blinded to treatment throughout the course of behavioral testing.
The LORR in C57/B6 mice were used to study the effects of screening compounds.
In experiment [7] the target is T3, α2A-AR mutant Y394A (α2AY394A-AR) (Homo sapiens, UniProt P08913, Y409A).
T3 construct: Flag; expressed in transfected cells; host or cells: HEK293
T3 sequence (P08913 1-465 Y409A): T1 sequence (P08913 1-465) with Y409A
Put plainly: GloSensor cAMP assay in HEK293 cells transfected with α2AY394A-AR. It is filed as cell-based. The settings on record: forskolin 10 μM. How it is done: as §1

Experiment [8] addresses T4, α2A-AR mutant V114A (α2AV114A-AR) (Homo sapiens, UniProt P08913, V129A).
T4 construct: Flag; expressed in transfected cells; host or cells: HEK293
T4 sequence (P08913 1-465 V129A): T1 sequence (P08913 1-465) with V129A
In words: GloSensor cAMP assay in HEK293 cells transfected with α2AV114A-AR. Type of experiment: cell-based. The settings on record: forskolin 10 μM. How it is done:
as §1

SMILES strings stand for the structures. Substitutions are numbered along the chain they refer to.

By IC50 is commonly meant the concentration at which inhibition is half-maximal. A low value points to greater potency. In the case of `CN(C)CCNC(=O)c1ccc2c(c1)n(Cc1cccc(F)c1)c(=O)c1ccnn12` [T226–1970], in experiment [1], the IC50 was 19.5 µM and the “maximum binding inhibition of [3H] Rauwolscine, α2A-AR” value (“maximum binding inhibition … α2A-AR” for short) is on record as 85%. The “inhibition of mice locomotor activity compared to solvent” value (from here on “inhibition … compared to solvent”) in experiment [2] is listed as 30%–60%. Further, in experiment [3], the “effect on cAMP accumulation (agonist activity) in α2B-AR cells” value (shortened to “effect … in α2B-AR cells”) is given as “no activation” and the “effect of pretreatment on cAMP accumulation induced by DMED (antagonist activity)” value (“effect of pretreatment” below) is “slightly decreased”. Besides, in experiment [4], the “increase of cAMP accumulation (Gαs coupling)” value (“increase of cAMP accumulation” below) was “without increasing” and the “decrease of cAMP accumulation stimulated by forskolin (Gαi/o coupling)” value (shortened to “decrease of cAMP accumulation stimulated”) is “decreased”. Moreover, in experiment [5], the IC50 came to 8.56 µM and the “maximum binding inhibition of [3H] Rauwolscine, α2B-AR” value (“maximum binding inhibition … α2B-AR” below) is recorded as 94%.
As for `Cc1cccc([C@H](C)c2cnc[nH]2)c1C` [DMED, Dexmedetomidine, reference compound], in experiment [6], the “LORR induced in mice” value is 50%. In addition, the “effect … in α2B-AR cells” value in experiment [3] is recorded as “concentration-dependently increased”. Also, in experiment [4], the “decrease in cAMP accumulation after pertussis toxin pretreatment” value is reported as “abolished”, the “increase of cAMP accumulation” value is “concentration-dependently increased” and the “decrease of cAMP accumulation stimulated” value was “concentration-dependently decreased”. For the same compound, in experiment [7], the “cAMP production in α2AY394A-AR compared to α2A-AR wild type” value is listed as “increased” and the “decrease of cAMP production in α2AY394A-AR cells” value is listed as “did not decrease”. Further, in experiment [8], the “cAMP production in α2AV114A-AR compared to α2A-AR wild type” value is “increased” and the “decrease of cAMP production in α2AV114A-AR cells” value was “did not decrease”. In experiment [5], this compound returned an IC50 of 0.0146 µM.
Turning to `COc1ccccc1N1CCN(CCN2C(=O)c3ccccc3C(C)(C)C2=O)CC1` [ARC239, reference compound], the “effect of pretreatment” value in experiment [3] was “decreased”.
As for `CCN(CC)CCNC(=O)c1ccc2c(c1)n(Cc1ccccc1)c(=O)c1ccnn12` [P300–1500], in experiment [1], the IC50 amounted to 9.66 µM and the “maximum binding inhibition … α2A-AR” value turned out to be 90%. The “inhibition … compared to solvent” value in experiment [2] is 30%–60%. Moreover, in experiment [3], the “effect … in α2B-AR cells” value was “no activation” and the “effect of pretreatment” value is “no effects”. In experiment [4], the “increase of cAMP accumulation” value is recorded as “without increasing” and the “decrease of cAMP accumulation stimulated” value is “decreased”. For the same compound, in experiment [5], the IC50 stood at 19 µM and the “maximum binding inhibition … α2B-AR” value is 85%.
For the compound `CCN(CC)CCNC(=O)c1ccc2c(c1)n(Cc1cccc(F)c1)c(=O)c1ccnn12` [P300–2342], the “maximum binding inhibition … α2A-AR” value in experiment [1] was found to be 83%. Also, the “antagonism of the locomotor inhibition by α2-AR antagonist atipamezole” value in experiment [2] (compound 10 nmol/mice i.c.v., atipamezole 0.2 mg/kg i.p.) was “could be antagonized”. Moreover, in experiment [2] (p < 0.05, dose not given), the “locomotor activity of mice (abstract statement)” value is on record as “significantly decreased”. In experiment [3], the “effect … in α2B-AR cells” value is recorded as “no effect” and the “effect of pretreatment” value is reported as “slightly decreased”. For the same compound, the “effect on cAMP accumulation in presence of α2A-AR selective antagonist BRL44408” value in experiment [4] (BRL44408 1 μM) is reported as “antagonized”. Moreover, in experiment [4], the “decrease in cAMP accumulation after pertussis toxin pretreatment” value was “abolished”, the “increase of cAMP accumulation” value was “without increasing” and the “decrease of cAMP accumulation stimulated” value is “concentration-dependently decreased”. Further, in experiment [7], the “decrease of cAMP production in α2AY394A-AR cells” value is on record as “did not decrease”. Besides, the “decrease of cAMP production in α2AV114A-AR cells” value in experiment [8] is recorded as “did not decrease”. Moreover, the “maximum binding inhibition … α2B-AR” value in experiment [5] is listed as 71%.
For the compound `O=C(NCCN1CCCCC1)c1ccc2c(c1)n(Cc1cccc(F)c1)c(=O)c1ccnn12` [P300–2344], in experiment [1], the IC50 turned out to be 11.3 µM and the “maximum binding inhibition … α2A-AR” value was 91%. Also, in experiment [2], the “inhibition … compared to solvent” value is listed as 30%–60%. Besides, in experiment [3], the “effect … in α2B-AR cells” value is given as “no activation” and the “effect of pretreatment” value is “no effects”. For the same compound, in experiment [4], the “increase of cAMP accumulation” value is “without increasing” and the “decrease of cAMP accumulation stimulated” value is “decreased”. For the same compound, in experiment [5], the IC50 was determined as 15.9 µM and the “maximum binding inhibition … α2B-AR” value was determined as 86%.

The values are drawn from publication PMC11241340, “The Discovery of Novel α2a Adrenergic Receptor Agonists Only Coupling to Gαi/O Proteins by Virtual Screening” (International Journal of Molecular Sciences, 2024).
